Assay results as given in PubChem BioAssay (NCI).
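These data come from cells grown in 96-well plates and exposed to compound for 48 hours at five concentrations. GI50: concentration for 50% inhibition of growth. TGI marks complete inhibition of growth.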

Tests used:
Experiment in all cases: growth of human tumour cells (NCI), 48 h
786-0 renal = test system: 786-0 renal
A549 NSCLC = test system: A549 NSCLC
CAKI-1 renal = test system: CAKI-1 renal
CCRF-CEM leukemia = test system: CCRF-CEM leukemia
COLO 205 colon = test system: COLO 205 colon
DLD-1 colon = test system: DLD-1 colon
DMS 114 small cell lung = test system: DMS 114 small cell lung
DMS 273 small cell lung = test system: DMS 273 small cell lung
EKVX NSCLC = test system: EKVX NSCLC
HCC-2998 colon = test system: HCC-2998 colon
HCT-116 colon = test system: HCT-116 colon
HCT-15 colon = test system: HCT-15 colon
HT29 colon = test system: HT29 colon
IGROV1 ovarian = test system: IGROV1 ovarian
KM12 colon = test system: KM12 colon
KM20L2 colon = test system: KM20L2 colon
LOX IMVI melanoma = test system: LOX IMVI melanoma
M14 melanoma = test system: M14 melanoma
MALME-3M melanoma = test system: MALME-3M melanoma
NCI-H226 lung = test system: NCI-H226 lung
NCI-H23 lung = test system: NCI-H23 lung
NCI-H460 lung = test system: NCI-H460 lung
OVCAR-3 ovarian = test system: OVCAR-3 ovarian
OVCAR-4 ovarian = test system: OVCAR-4 ovarian
OVCAR-5 ovarian = test system: OVCAR-5 ovarian
OVCAR-8 ovarian = test system: OVCAR-8 ovarian
RXF 393 renal = test system: RXF 393 renal
SF-268 CNS = test system: SF-268 CNS
SF-295 CNS = test system: SF-295 CNS
SF-539 CNS = test system: SF-539 CNS
SK-MEL-2 melanoma = test system: SK-MEL-2 melanoma
SK-MEL-28 melanoma = test system: SK-MEL-28 melanoma
SK-MEL-5 melanoma = test system: SK-MEL-5 melanoma
SK-OV-3 ovarian = test system: SK-OV-3 ovarian
SN12C renal = test system: SN12C renal
SNB-19 CNS = test system: SNB-19 CNS
SNB-75 CNS = test system: SNB-75 CNS
SR leukemia = test system: SR leukemia
SW-620 colon = test system: SW-620 colon
TK-10 renal = test system: TK-10 renal
U251 CNS = test system: U251 CNS
UACC-257 melanoma = test system: UACC-257 melanoma
UACC-62 melanoma = test system: UACC-62 melanoma
UO-31 renal = test system: UO-31 renal

Compound: [Cl-].[Cl-].[Cl-].[O-]c1cccc2cccnc12.[O-]c1cccc2cccnc12.[O]=[Mo]
- GI50 (786-0 renal): 18.5 µM
- TGI (786-0 renal): 99.8 µM
- GI50 (A549 NSCLC): 3.59 µM
- TGI (A549 NSCLC): > 100 µM
- GI50 (CAKI-1 renal): 20.6 µM
- TGI (CAKI-1 renal): > 100 µM
- GI50 (CCRF-CEM leukemia): 0.35 µM
- TGI (CCRF-CEM leukemia): > 100 µM
- GI50 (COLO 205 colon): 4.6 µM
- TGI (DLD-1 colon): > 100 µM
- TGI (DMS 114 small cell lung): 3.13 µM
- TGI (DMS 273 small cell lung): 4.41 µM
- GI50 (EKVX NSCLC): 15.4 µM
- TGI (EKVX NSCLC): 78.4 µM
- GI50 (HCC-2998 colon): 2.41 µM
- TGI (HCC-2998 colon): 5.69 µM
- GI50 (HCT-116 colon): 2.58 µM
- TGI (HCT-116 colon): 36.4 µM
- GI50 (HCT-15 colon): 2.39 µM
- TGI (HCT-15 colon): > 100 µM
- GI50 (HT29 colon): 2.88 µM
- TGI (HT29 colon): 11.5 µM
- TGI (IGROV1 ovarian): 35 µM
- GI50 (KM12 colon): 0.448 µM
- TGI (KM12 colon): 2.08 µM
- TGI (KM20L2 colon): 70.6 µM
- GI50 (LOX IMVI melanoma): 2.33 µM
- TGI (LOX IMVI melanoma): 22 µM
- GI50 (M14 melanoma): 1.81 µM
- TGI (M14 melanoma): 5.48 µM
- GI50 (MALME-3M melanoma): 2.25 µM
- TGI (MALME-3M melanoma): 4.99 µM
- GI50 (NCI-H226 lung): 2.28 µM
- TGI (NCI-H226 lung): 14.2 µM
- GI50 (NCI-H23 lung): 2.6 µM
- TGI (NCI-H23 lung): 8.38 µM
- GI50 (NCI-H460 lung): 2.52 µM
- TGI (NCI-H460 lung): 11.7 µM
- GI50 (OVCAR-3 ovarian): 6.88 µM
- TGI (OVCAR-3 ovarian): > 100 µM
- GI50 (OVCAR-4 ovarian): 3.9 µM
- TGI (OVCAR-4 ovarian): 47 µM
- GI50 (OVCAR-5 ovarian): 2.85 µM
- TGI (OVCAR-5 ovarian): 8.6 µM
- GI50 (OVCAR-8 ovarian): 2.53 µM
- TGI (OVCAR-8 ovarian): 12.3 µM
- GI50 (RXF 393 renal): 2 µM
- TGI (RXF 393 renal): 4.89 µM
- GI50 (SF-268 CNS): 6.33 µM
- TGI (SF-268 CNS): 55.2 µM
- GI50 (SF-295 CNS): 2.8 µM
- TGI (SF-295 CNS): 17.2 µM
- GI50 (SF-539 CNS): 7.34 µM
- TGI (SF-539 CNS): > 100 µM
- GI50 (SK-MEL-2 melanoma): 3.37 µM
- TGI (SK-MEL-2 melanoma): 18.1 µM
- GI50 (SK-MEL-28 melanoma): 2.43 µM
- TGI (SK-MEL-28 melanoma): 9.41 µM
- TGI (SK-MEL-5 melanoma): 3.89 µM
- GI50 (SK-OV-3 ovarian): 15.1 µM
- TGI (SK-OV-3 ovarian): 39.6 µM
- GI50 (SN12C renal): 6.71 µM
- TGI (SN12C renal): > 100 µM
- GI50 (SNB-19 CNS): 4.87 µM
- TGI (SNB-19 CNS): > 100 µM
- GI50 (SNB-75 CNS): 5.08 µM
- TGI (SNB-75 CNS): > 100 µM
- TGI (SR leukemia): > 100 µM
- GI50 (SW-620 colon): 1.92 µM
- TGI (SW-620 colon): > 100 µM
- GI50 (TK-10 renal): 15.2 µM
- TGI (TK-10 renal): > 100 µM
- GI50 (U251 CNS): 3.57 µM
- TGI (U251 CNS): 40.5 µM
- GI50 (UACC-257 melanoma): 2.1 µM
- TGI (UACC-257 melanoma): 6.69 µM
- GI50 (UACC-62 melanoma): 2.49 µM
- TGI (UACC-62 melanoma): 7.41 µM
- GI50 (UO-31 renal): 4.09 µM
- TGI (UO-31 renal): 24.1 µM
